This assay has as its system mice, ADJ-PC-20 plasma cell tumor sc, T/C %. Briefly: NCI In Vivo Anticancer Drug Screen. Data for tumor model ADJ-PC-20 Plasma Cell (subcutaneous) in unknown mice. The note with it: endpoint: mean tumor weight, higher = larger tumour. Here is the method:
The antitumor activity of compounds was measured in mice bearing transplantable tumors. Survival or tumor size were measured and the results are expressed as the measurement made in the treated group (T) divided by the measurement made in the vehicle treated control group (C). The tumor model used in this assay is ADJ-PC-20 Plasma Cell (subcutaneous) in unknown mice

The mark [1] stands for this setting: dose: 4.0 mg/kg/injection, schedule: Q01DX010 (ip), vehicle: carboxymethylcellulose (CMC).
Where [2] appears, read: dose: 8.0 mg/kg/injection, schedule: Q01DX010 (ip), vehicle: carboxymethylcellulose (CMC).
[3] abbreviates: dose: 16.0 mg/kg/injection, schedule: Q01DX010 (ip), vehicle: carboxymethylcellulose (CMC).
The mark [4] stands for this setting: dose: 1.25 mg/kg/injection, schedule: Q01DX010 (ip), vehicle: saline.

Records with an inconclusive call do not appear.

Regarding `C[C@]12CCC(=O)C=C1CC[C@@H]1[C@@H]2C(=O)C[C@@]2(C)[C@H]1CC[C@]2(O)C(=O)CO`, the T/C reads like this: (dose: 31.25 mg/kg/injection, schedule: Q01DX010 (sc), vehicle: steriod suspending solution) 7 % of control; (dose: 125.0 mg/kg/injection, schedule: Q01DX010 (sc), vehicle: steriod suspending solution) 11 % of control.

As for `Nc1nc(SCc2ccccc2)c2[nH]cnc2n1`, the T/C reads like this: (dose: 0.3 mg/kg/injection, schedule: Q01DX010 (ip), vehicle: carboxymethylcellulose (CMC)) 94 % of control; (dose: 1.2 mg/kg/injection, schedule: Q01DX010 (ip), vehicle: carboxymethylcellulose (CMC)) 81 % of control; (dose: 2.4 mg/kg/injection, schedule: Q01DX010 (ip), vehicle: carboxymethylcellulose (CMC)) 119 % of control; (dose: 4.7 mg/kg/injection, schedule: Q01DX010 (ip), vehicle: carboxymethylcellulose (CMC)) 9 % of control.

As to `O=C(Nc1ccc(NC2=NCCN2)cc1)c1ccc(C(=O)Nc2ccc(NC3=NCCN3)cc2)cc1`, the T/C is 98 % of control (dose: 4.0 mg/kg/injection, schedule: Q01DX010 (ip), vehicle: saline) and 69 % of control (dose: 8.0 mg/kg/injection, schedule: Q01DX010 (ip), vehicle: saline).

Regarding `O=c1[nH]c(=O)n(C2CC(O)C(CO)O2)cc1Br` (configuration not stated), the T/C is 80 % of control (dose: 31.25 mg/kg/injection, schedule: Q01DX010 (ip), vehicle: carboxymethylcellulose (CMC)); 86 % of control (dose: 62.5 mg/kg/injection, schedule: Q01DX010 (ip), vehicle: carboxymethylcellulose (CMC)); 74 % of control (dose: 125.0 mg/kg/injection, schedule: Q01DX010 (ip), vehicle: carboxymethylcellulose (CMC)); 88 % of control (dose: 500.0 mg/kg/injection, schedule: Q01DX010 (ip), vehicle: carboxymethylcellulose (CMC)); 74 % of control (dose: 1000.0 mg/kg/injection, schedule: Q01DX010 (ip), vehicle: carboxymethylcellulose (CMC)).

For `CCCSc1ncnc2nc[nH]c12`, the T/C under setting [1] was 81 % of control, the T/C under setting [2] is 43 % of control and the T/C under setting [3] was 28 % of control.

For `c1ccc(CNc2ncnc3[nH]ncc23)cc1`, the T/C is, setting by setting: under setting [1], 110 % of control; under setting [2], 108 % of control; under setting [3], 82 % of control; (dose: 32.0 mg/kg/injection, schedule: Q01DX010 (ip), vehicle: carboxymethylcellulose (CMC)) 65 % of control.

Take `N=[N+]=CC(=O)OCC(N)C(=O)O` (configuration not stated): the T/C by setting is: under setting [4], 120 % of control; (dose: 5.0 mg/kg/injection, schedule: Q01DX010 (ip), vehicle: saline) 93 % of control.

For `O=C(O)CCCc1ccc(N(CCCl)CCCl)cc1`, the T/C is 120 % of control (dose: 6.25 mg/kg/injection, schedule: Q01DX010 (ip), vehicle: carboxymethylcellulose (CMC)) and 58 % of control (dose: 12.5 mg/kg/injection, schedule: Q01DX010 (ip), vehicle: carboxymethylcellulose (CMC)).

As for `NC(=O)c1ccc(N)nc1`, the T/C (dose: 0.63 mg/kg/injection, schedule: Q01DX010 (ip), vehicle: saline) was 69 % of control; the T/C under setting [4] was 52 % of control; the T/C (dose: 1.25 mg/kg/injection, schedule: Q01DX010 (ip), vehicle: water) was 35 % of control; the T/C (dose: 2.5 mg/kg/injection, schedule: Q01DX010 (ip), vehicle: water) was 18 % of control.

For the compound `COc1ccc(/C=N/NC(N)=S)cc1`, the T/C is 87 % of control (dose: 75.0 mg/kg/injection, schedule: Q01DX010 (ip), vehicle: saline); 99 % of control (dose: 150.0 mg/kg/injection, schedule: Q01DX010 (ip), vehicle: saline); 82 % of control (dose: 300.0 mg/kg/injection, schedule: Q01DX010 (ip), vehicle: saline); 85 % of control (dose: 600.0 mg/kg/injection, schedule: Q01DX010 (ip), vehicle: saline).

The values are drawn from PubChem BioAssay AID332 (DTP/NCI, 2004).
